pKd: −log10 of the molar value. One block for each molecule: values may come before it.
How the values were obtained:
Olfr111 = assay: Luciferase assay in Hana3A cells transfected with Olfr111; assay type: cell-based, mouse; conditions: for binding to Olfr1111: furan derivatives; for reactivity with Olfr111 (relative luciferase activity): Hana3A cells
Experimental: (§1) A Dual-Glo luciferase assay system (#E2940; Promega) was used for OR ligand screening. More specifically, Hana3A cells were seeded in white polystyrene 96-well plates (#353296; BD Biosciences) one day before transfection. pCRELuc (1 μg; #219076; Agilent Technologies), pRL-SV40 (1 μg; #E2231; Promega), RTP1S (1 μg), and OR (6 μg; or Mock) vectors were transfected for 24 hours in each plate. Analysis was performed using Lipofectamine 2000 (#11668-019; Thermo Fisher Scientific) according to the manufacturer's protocols. Transfected cells were stimulated at 37° C. for 4 hours with various concentrations of diluted odorants in a CD293 medium (#11913-019; Thermo Fisher Scientific). The activity of luciferase was normalized to that of Renilla luciferase. Luminescence was measured using a SpectraMax L microplate reader (Molecular Devices).

Olfr110 = target: T1, Olfr110 (Mus musculus, UniProt A2RT31); assay: Luciferase assay in Hana3A cells transfected with Olfr110; assay type: cell-based; conditions: for binding to Olfr110: furan derivatives; for reactivity with Olfr110 (relative luciferase activity): Hana3A cells
T1 construct: Full-length odorant receptor genes from mouse and human genomic DNAs were amplified using appropriate primers; Lucy (N); Flag (N); Rho (N); expressed in transfected cells; host or cells: Hana3A cells, co-transfected with RTP1S, pCRELuc and pRL-SV40
T1 sequence (A2RT31 1-317): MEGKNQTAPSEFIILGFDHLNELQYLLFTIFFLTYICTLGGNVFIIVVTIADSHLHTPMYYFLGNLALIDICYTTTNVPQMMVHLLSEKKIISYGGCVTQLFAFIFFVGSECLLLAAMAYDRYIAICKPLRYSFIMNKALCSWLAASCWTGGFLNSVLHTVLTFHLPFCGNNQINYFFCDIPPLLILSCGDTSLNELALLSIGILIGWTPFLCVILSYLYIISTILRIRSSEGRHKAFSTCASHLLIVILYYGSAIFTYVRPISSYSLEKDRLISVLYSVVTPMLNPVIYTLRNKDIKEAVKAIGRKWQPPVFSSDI
Experimental: as §1

primary microglia [1] = assay: Cytokine ELISA of primary microglia; assay type: cell-based, mouse; conditions: inhibitor pretreatment, then 2-PF
Experimental: The levels of expression of cytokines Tnf, i16 and I11b secreted from microglia were measured according to the manufacturer's protocols. More specifically, the levels were measured by ELISA 24 hours after treatment with 2-PF or a cell supernatant. The ELISA kit was purchased from BD Biosciences (#DY410 for Tnf; #DY406 for I16; #DY401 for I11b).

primary microglia [2] = assay: ROS / superoxide generation in primary microglia; assay type: cell-based, mouse; conditions: for ROS generation after 2-PF: inhibitor pretreatment, then 2-PF; for ROS generated with 2-PF co-treatment: Sup MOI 5 + 500 μM 2-PF, 2-EF 0, 100, 300, 500 μM
Experimental: Superoxide concentrations were calculated by measuring the degree ofcytochrome c reduction using a VersaMax microplate reader (Babior et al., 1973). Microglia were cultured in a 96 well plate at a concentration of 1.0×10^5 cells/well, and the microglia were activated by a 10 μM ATP solution containing 2-PF and cytochrome c, or a solution in which Sup is mixed with cytochalasin B (5 μM; #C66762; Sigma Aldrich). The concentration of ROS was measured through a change in light absorption every minute for 25 minutes at 550 nm.
ROS levels were measured using 2′,7′-dichlorodihydrofluorescein diacetate (DCF-DA, #D6883; Sigma Aldrich) by a previously described method with minor modifications (Bae et al., 2001). More specifically, primary microglia were seeded in 24-well plates (5.0×10^5 cells/well) for 24 hours, and then treated with 10 μM DCF-DA at 37° C. for 30 minutes. One plate was treated with 2-PF, and the other one was not. The cells in each well were measured using a flow cytometer (FACS Accuri™ C6; BD Biosciences). MFI was measured as described above.

[3] = test system: Olfr920, Olfr1417 and Olfr99; conditions: also react with MOCK
primary microglia [4] = assay: Western blotting of phosphorylated signaling proteins in primary microglia; assay type: cell-based, mouse; conditions: inhibitor pre-cultivation, then 2-PF
Experimental: Cells and tissue were prepared using the T-PER® reagent (#78510; Thermo Fisher Scientific) containing protease inhibitors (#04-693-116-001; Roche Molecular Diagnostics) and DMSF (Sigma-Aldrich), and then lysed using a MagNA lyser (Roche Molecular Diagnostics). A total protein extract was quantified by the Bradford assay. The samples were dissolved in 7.5% SDS-PAGE or 4-20% gradient mini-PROTEIN TGX Precast Gels (#456-1064; Bio-Rad Laboratories), and then blotted on nitrocellulose membranes (#10600002; GE Healthcare). Afterward, the membranes were blocked for 1 hour in 5% non-fat dry milk and TBST, 0.1% TWEEN® 20 (#P9416; Sigma-Aldrich), and Tris-buffered saline, and then incubated with primary antibodies at 4° C. overnight. The antibodies were as follows: Olfr110 (36 kDa; 1:1,000; #ab177327; Abcam), anti-rhodopsin (39 kDa; 1:1,000; #MABN15; Millipore), CREB (43 kDa; 1:1,000; #9197; Cell Signaling Technology), phospho-CREB (43 kDa; 1:1,000; #9198; Cell Signaling Technology), ERK (44 kDa; 1:1,000; #sc094; Santa Cruz), phospho-ERK (42, 44 kDa; 1:1,000; #sc-7383; Santa Cruz), phospho-Akt (60 kDa; 1:500; sc-293125; Santa Cruz), phospho-JNK (46, 54 kDa; 1:500; sc-6254; Santa Cruz), phosphor-p38 (38 kDa; 1:1,000; sc-7973; Santa Cruz), and beta-Actin (45 kDa; 1:10,000; #4967; Cell Signaling Technology). In addition, as isotype-matched horseradish peroxidase-conjugated secondary antibodies, anti-rabbit IgG (#711-035-152; Jackson ImmunoResearch) diluted 1:100,000, and anti-mouse IgG (#715-035-150; Jackson ImmunoResearch) diluted 1:40,000 in TBST were used at room temperature for 2 hours. Immunoreactive protein bands were obtained using SuperSignal™ West Pico Chemiluminescent Substrate (#34080; Thermo Fisher Scientific).

SMILES: Cc1ccoc1C [2,3-dimethylfuran]
- binding to Olfr1111 (Olfr111): do not bind
- binding to Olfr110 (Olfr110): do not bind

- binding to Olfr110 (Olfr110): do not bind
SMILES: Cc1ccco1 [2-methylfuran]
- binding to Olfr1111 (Olfr111): do not bind

SMILES: O=S(=O)(NCCNC/C=C/c1ccc(Br)cc1)c1cccc2cnccc12 [H-89]
- Tnf and Il6 cytokine levels after 2-PF (primary microglia [1]): great decrease

SMILES: O=C1OC2(c3ccccc31)c1ccc(O)c(O)c1Oc1c2ccc(O)c1O [gallein, reference compound]
- ROS generation after 2-PF (primary microglia [2]): similarly inhibited

- reactivity with Olfr110 (relative luciferase activity) (Olfr110): showed reactivity
SMILES: CCCc1ccco1 [2-propylfuran]
- reactivity with Olfr111 (relative luciferase activity) (Olfr111): showed reactivity

- reactivity with Olfr110 (relative luciferase activity) (Olfr110): showed reactivity
- binding to Olfr110 (Olfr110): do not bind
SMILES: CCCCCCc1ccco1 [2-hexylfuran]
- reactivity with Olfr111 (relative luciferase activity) (Olfr111): showed reactivity
- binding to Olfr1111 (Olfr111): do not bind

- reactivity of the other three receptors [3]: non-specific reaction
SMILES: CCO [ethanol]

SMILES: COc1cccc(-c2cc(=O)c3ccccc3o2)c1N [pd98059]
- CREB and ERK phosphorylation (primary microglia [4]): greatly decreased
- Tnf and Il6 cytokine levels after 2-PF (primary microglia [1]): relatively less decrease

SMILES: COc1ccc2c(c1)CC[C@@H]1[C@@H]2CC[C@]2(C)[C@@H](NCCCCCCN3C(=O)C=CC3=O)CC[C@@H]12 [U73122, reference compound]
- ROS generation after 2-PF (primary microglia [2]): completely inhibited
- Tnf and Il6 cytokine levels after 2-PF (primary microglia [1]): relatively less decrease

SMILES: Nc1ncnc2c1ncn2C1CCCO1 (stereo not drawn) [SQ22536]
- CREB and ERK phosphorylation (primary microglia [4]): greatly decreased
- Tnf and Il6 cytokine levels after 2-PF (primary microglia [1]): great decrease

- binding to Olfr110 (Olfr110): do not bind
SMILES: CCCCCCCc1ccco1 [2-heptylfuran]
- binding to Olfr1111 (Olfr111): do not bind

- mode of action at Olfr110 (Olfr110): competitive inhibitor (antagonist)
- 2-PF activity on Olfr110 with co-treatment (Olfr110; 2-PF fixed at 300 μM, 2-EF 1 μM to 10 mM): 2-PF activity decreases
- pKd (Olfr110; 2-PF fixed at 300 μM, 2-EF 1 μM to 10 mM, read-out: Kd (competitive activity against 2-PF)): 3.92
- binding to Olfr110 (Olfr110): do not bind
SMILES: CCc1ccco1 [2-EF, 2-ethylfuran]
- binding to Olfr1111 (Olfr111): do not bind
- amount of ROS generated by 100 MOI Sup (primary microglia [2]; 2-EF pretreated at 0, 100, 300, 500 μM): diminished as the 2-EF level increases
- ROS generated with 2-PF co-treatment (primary microglia [2]): the higher the concentration of 2-EF added, the lower the concentration of the generated ROS
- ROS generated with 2-PF co-treatment (primary microglia [2]; listed as 2-ethylfuran): reduced

- reactivity with Olfr110 (relative luciferase activity) (Olfr110): showed reactivity
SMILES: CCCCc1ccco1 [2-butylfuran]
- reactivity with Olfr111 (relative luciferase activity) (Olfr111): showed reactivity

- reactivity with Olfr110 (relative luciferase activity) (Olfr110): showed reactivity
SMILES: CC(C)(C)c1ccco1 [2-t-butylfuran]
- reactivity with Olfr111 (relative luciferase activity) (Olfr111): showed reactivity

— patent publication US12265087B2, “Olfactory receptor as microglia marker and use thereof” (DAEGU GYEONGBUK INSTITUTE OF SCIENCE AND TECHNOLOGY, priority 2019, dated 2025)
